Data taken from patent US6680058B1, “Compositions and methods for contraception in or sterilization of mammals” (Board of Supervisors of Louisiana State University and …, priority 1997, dated 2004).

Columns and labels:
granulosa cells = assay: Steroid hormone production by granulosa cells (data not shown); assay type: cell-based, bovine
Excerpt: Stimulation of target cell hormone production was not required for cell lysis.

[1] = test system: sexually mature, Sprague-Dawley female rats; assay: Sexually mature Sprague-Dawley female rats, single intravenous treatment, necropsy 48 or 96 hours after treatment, H&E and PAS stain (Examples 15-22); assay type: in vivo, rat; settings: 334 μg in 200 μL saline (1.35 mM) i.v.; sacrificed 48 or 96 hours after injection
Method: Eight sexually mature, Sprague-Dawley female rats were randomly assigned to one of eight treatments. Each group of rats received a single treatment intravenously, as described below. Rats were sacrificed and necropsied either 48 or 96 hours after treatment. The ovaries, uterus, pancreas, liver, spleen, lungs, heart, thyroid, and adrenal glands were fixed in 10% buffered formalin; sectioned; and stained with H&E (hematoxylin and eosin) stain; except that the pituitary glands were stained with PAS (periodic acid-Schiff) stain with no counter-stain. The treatments were selected so that each animal received an equimolar amount of the compound with which it was treated.

GnRH receptor [2] = target: T1, GnRH receptor (Homo sapiens, UniProt P30968); settings: reported; see U.S. Pat. No. 5,488,036; cited from earlier work
T1 sequence (P30968 1-328): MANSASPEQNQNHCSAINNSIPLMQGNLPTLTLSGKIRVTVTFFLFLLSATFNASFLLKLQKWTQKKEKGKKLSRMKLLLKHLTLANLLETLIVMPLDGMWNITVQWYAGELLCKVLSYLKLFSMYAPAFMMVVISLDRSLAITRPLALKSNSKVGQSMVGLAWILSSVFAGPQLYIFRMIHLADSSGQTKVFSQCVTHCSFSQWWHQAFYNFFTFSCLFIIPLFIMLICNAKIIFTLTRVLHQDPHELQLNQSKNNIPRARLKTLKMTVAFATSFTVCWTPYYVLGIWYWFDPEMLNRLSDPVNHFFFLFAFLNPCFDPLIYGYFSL

GnRH receptor [3] = target: T2, GnRH receptor (Rattus norvegicus, UniProt P30969); assay: Displacement of radiolabelled monoiodinated-GnRH from rat pituitary membranes (Example 24); assay type: binding
T2 construct: specifically displaced radiolabelled monoiodinated-GnRH from rat pituitary membranes; from tissue; host or cells: rat pituitary membranes
T2 sequence (P30969 1-327): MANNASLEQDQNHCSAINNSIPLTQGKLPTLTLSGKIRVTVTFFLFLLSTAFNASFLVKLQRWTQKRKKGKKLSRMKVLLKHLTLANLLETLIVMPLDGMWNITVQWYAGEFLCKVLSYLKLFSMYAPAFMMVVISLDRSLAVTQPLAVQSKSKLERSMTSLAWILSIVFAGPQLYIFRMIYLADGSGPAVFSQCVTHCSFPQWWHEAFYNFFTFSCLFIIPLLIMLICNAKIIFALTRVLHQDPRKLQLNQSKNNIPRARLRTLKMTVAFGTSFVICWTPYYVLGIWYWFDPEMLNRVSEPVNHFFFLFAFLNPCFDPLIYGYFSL
Excerpt: We also synthesized D-Lys^6GnRH (SEQ. ID NO. 13), so that hecate could be conjugated to the D-Lys^6, a position that could minimize interference with binding of the GnRH domain to the GnRH receptor. These synthetic peptides specifically displaced radiolabelled monoiodinated-GnRH from rat pituitary membranes.

[4] = test system: bovine small luteal cells; assay: In vitro lysis of bovine small luteal cells, Trypan Blue exclusion and release of lactic dehydrogenase (Examples 25-32); assay type: cell-based; settings: 22 hr. incubation; for killing of small luteal cells: Trypan Blue exclusion
Method: We studied in vitro lysis of bovine luteal cells with GnRH-hecate conjugate and with hecate-bLH conjugate (SEQ. ID NO. 12). (The bLH component of the conjugate is a 15-mer fragment of the beta chain of luteinizing hormone, SEQ. ID NO. 11). Small luteal cells were collected from cattle corpora lutea post-slaughter.
Small luteal cells in culture were incubated with one of the following treatments for 22 hours, and were then examined for viability using Trypan Blue exclusion and release of lactic dehydrogenase.

[5] = test system: sexually mature, mixed breed, female rats; assay: Sexually mature female rats, double intravenous treatment, necropsy two weeks after treatment (Examples 9-14); assay type: in vivo, rat; settings: Treatment 12: hecate 337 μg i.v., repeated after 24 hours; two weeks
Excerpt: Eighteen sexually mature, mixed breed, female rats were randomly assigned to one of six groups containing three rats each. Each group of rats received a double treatment intravenously, as described below. Two weeks after the treatment, the rats were sacrificed and necropsied. The reproductive and endocrine organs were sectioned, weighed, and examined histologically.

bovine granulosa cells = assay: In vitro lysis of bovine granulosa cells (Examples 33-34); assay type: cell-based; settings: hecate alone; compared with small luteal cells
Excerpt: We also studied in vitro lysis of bovine granulosa cells with GnRH-hecate conjugate and with hecate-bLH conjugate. Granulosa cells were isolated from bovine pre-ovulatory follicles. (Granulosa cells are hormonally active cells with numerous LH receptors.) Our experiments with granulosa cells were otherwise generally similar to those described above for Examples 25-32.

[6] = test system: pituitary basophilic (gonadotropic) cells; assay: Adult female rat pituitary gland sections in tissue culture, histology ten hours after treatment (Examples 1-6); assay type: cell-based; settings: 50 μM hecate in the medium; ten hours
Method: The pituitary gland of an adult female rat was harvested and divided into six sections of approximately equal size. One section was placed in each of six wells containing tissue culture medium at 37° C. A different treatment was applied to each well, as described below. Ten hours after treatment, the tissue from each well was fixed, and the histology of each was examined microscopically.

Bonamia ostreae = settings: in vitro; Morvan et al. 1994; cited from earlier work
[7] = test system: cells of the flat oyster Ostrea edulis; settings: at the doses that reduced parasite viability; Morvan et al. 1994; cited from earlier work

15-mer fragment of the bLH subunit: 15-mer fragment of the beta chain of luteinizing hormone, SEQ. ID NO. 11 (SYAVALSCQCALCRR)
production of steroid hormones (stimulus-coupled response) (granulosa cells): did not initiate the production of steroid hormones

CC(C)C[C@H](NC(=O)CNC(=O)[C@H](Cc1ccc(O)cc1)NC(=O)[C@H](CO)NC(=O)[C@H](Cc1c[nH]c2ccccc12)NC(=O)[C@H](Cc1cnc[nH]1)NC(=O)[C@@H]1CCC(=O)N1)C(=O)N[C@@H](CCCNC(=N)N)C(=O)N1CCC[C@H]1C(=O)NCC(N)=O [GnRH, gonadotropin-releasing hormone, reference compound]
gross lesions in the organs [1]: No gross lesions

CCNC(=O)[C@@H]1CCCN1C(=O)[C@H](CCCNC(=N)N)NC(=O)[C@H](CC(C)C)NC(=O)[C@@H](COC(C)(C)C)NC(=O)[C@H](Cc1ccc(O)cc1)NC(=O)[C@H](CO)NC(=O)[C@H](Cc1c[nH]c2ccccc12)NC(=O)[C@H](Cc1cnc[nH]1)NC(=O)[C@@H]1CCC(=O)N1 [buserelin]
binding affinity to the GnRH receptor compared with GnRH (GnRH receptor [2]): greater binding affinity to the GnRH receptor than does GnRH itself

CC(C)C[C@H](NC(=O)[C@@H](COC(C)(C)C)NC(=O)[C@H](Cc1ccc(O)cc1)NC(=O)[C@H](CO)NC(=O)[C@H](Cc1c[nH]c2ccccc12)NC(=O)[C@H](Cc1cnc[nH]1)NC(=O)[C@@H]1CCC(=O)N1)C(=O)N[C@@H](CCCNC(=N)N)C(=O)N1CCC[C@H]1C(=O)NNC(N)=O [goserelin]
binding affinity to the GnRH receptor compared with GnRH (GnRH receptor [2]): greater binding affinity to the GnRH receptor than does GnRH itself

CCNC(=O)[C@@H]1CCCN1C(=O)[C@H](CCCNC(=N)N)NC(=O)[C@H](CC(C)C)NC(=O)[C@@H](CC(C)C)NC(=O)[C@H](Cc1ccc(O)cc1)NC(=O)[C@H](CO)NC(=O)[C@H](Cc1c[nH]c2ccccc12)NC(=O)[C@H](Cc1c[nH]cn1)NC(=O)[C@@H]1CCC(=O)N1 [leuprolide]
binding affinity to the GnRH receptor compared with GnRH (GnRH receptor [2]): greater binding affinity to the GnRH receptor than does GnRH itself

D-Lys^6GnRH-hecate: hecate conjugated to the D-Lys^6 of D-Lys^6GnRH
displacement of radiolabelled monoiodinated-GnRH, compared with native mammalian GnRH (GnRH receptor [3]; as measured by cpm of radioactivity): comparable to (and actually slightly greater than) displacement by native mammalian GnRH

D-Lys^6GnRH: GnRH analog with D-Lys at position 6, SEQ. ID NO. 13
specific displacement of the radiolabelled peptide relative to equimolar concentrations of GnRH (GnRH receptor [3]; molar basis over a 1000-fold concentration range (n=6), native GnRH = 100%): 187%±8%

hecate: amphipathic lytic peptide, synthetic peptide analog of melittin, SEQ. ID NO. 2 (FALALKALKKALKKLKKALKKAL) [reference compound]
cell death of small luteal cells ([4]; 1 μM): did not differ significantly from negative control (media) or from bLH alone
killing of small luteal cells ([4]; 5 μM): approximately 50%
killing of small luteal cells ([4]; 10 μM): Significant killing
ovarian function [5]: normal ovarian function
susceptibility of granulosa cells to killing (bovine granulosa cells): much more susceptible to killing by hecate alone than were the small luteal cells
histology of pituitary tissue after treatment [6]: appeared normal

magainin 1: antimicrobial peptide magainin 1 (GIGKFLHSAGKFGKAFVGEIMKS; Magainin-1; UniProt P11006 37-59, looked up)
viability of the parasite Bonamia ostreae (Bonamia ostreae): selectively reduce the viability
effect on cells of the flat oyster Ostrea edulis [7]: did not affect
